# Where two headings read alike, the source gives them in different places.
# Legend:
# [1] = target: T1, Ba/F3-TEL-EGFR-L858R-C797S (Homo sapiens, UniProt P00533, C797S/L858R, cells depend on it); experiment: CellTiter-Glo proliferation, Ba/F3-TEL-EGFR-L858R-C797S; assay type: cell-based; conditions: 72 hours, read-out: Ba/F3-TEL-EGFR-L858R-C797S IC50/nM
# T1 construct: fused on or other part: N-terminal TEL (ETV6) oligomerising part fused to the EGFR intracellular/kinase part; P41212 (Transcription factor ETV6)
# Method in brief: (§1)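 Ba/F3 lines dependent on the indicated EGFR variants were treated with compounds at a final DMSO concentration of 0.1% at 37 °C, 5% CO2. Viability was read by CellTiter-Glo luminescence, and inhibition rate was normalised to DMSO-treated cells (max) and medium-only wells (min). IC50 came from inhibition curves.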
# Ba/F3-FL-EGFR-L858R = Ba/F3-FL-EGFR-L858R (Homo sapiens, UniProt P00533, L858R, cells depend on it); experiment: CellTiter-Glo proliferation, Ba/F3-FL-EGFR-L858R; assay type: cell-based; conditions: 72 hours, read-out: Ba/F3-FL-EGFR-L858R IC50/nM
# Method in brief: as §1
# EGFR (L858R/T790M/C797S) = EGFR (L858R/T790M/C797S) (Homo sapiens, UniProt P00533, C797S/L858R/T790M); experiment: MSA (Mobility Shift Assay) kinase activity, EGFR-L858R-T790M-C797S; assay type: biochemical
# Procedure: (§2) The MSA (Mobility Shift Assay) method was used to detect the effects of small molecule inhibitors on the kinase activity of EGFR wild type and its mutants (EGFR^wt, EGFR-L858R, EGFR-L858R-T790M-C797S, EGFR-L858R-C797S).
# (§3) 10 μL of kinase solution at 2.5 times the final concentration was added to the compound wells and positive control Max wells; 10 μL of 1x kinase buffer was added to the negative control Min wells. The mixture was centrifuged at 1000 rpm for 30 seconds, and the reaction plate was shaken to mix the solution well and then incubated at room temperature for 10 minutes. A mixed solution of ATP and kinase substrate at 5/3 times the final concentration was prepared in 1x kinase buffer. 15 μL of a mixed solution of ATP and substrate at 5/3 times the final concentration was added to initiate the reaction. The 384-well plate was centrifuged at 1000 rpm for 30 seconds, and shaken to mix the solution well and then incubated at room temperature for the corresponding time. 30 μL of stop detection solution was added to stop the kinase reaction, and the mixture was centrifuged at 1000 rpm for 30 seconds, and then to mixed well by shaking. The conversion rate was read using Caliper EZ Reader.
# (§4) wherein: Conversion %_sample is the conversion rate reading of the sample; Conversion %_min is the mean of the negative control wells, representing the conversion rate reading of the wells without enzyme activity; Conversion %_max is the mean of the positive control wells, representing the conversion rate reading of the wells without compound inhibition.
# (§5) The log (inhibitor) vs. response —Variable slope of the analysis software GraphPad Prism 5 was used to fit the dose-effect curve, where the log value of the concentration was used as the X-axis and the percentage inhibition rate was used as the Y-axis, to obtain the IC50 value of each compound on the enzyme activity.
# (§6) The calculation formula is Y=Bottom+(Top-Bottom)/(1+10^((Log IC50−X)*Hill Slope))
# EGFR (L858R) = EGFR (L858R) (Homo sapiens, UniProt P00533, L858R); experiment: MSA (Mobility Shift Assay) kinase activity, EGFR-L858R; assay type: biochemical
# Procedure: as §2, §3, §4, §5, §6
# Ba/F3-FL-EGFR = target: T2, Ba/F3-FL-EGFR (Homo sapiens, UniProt P00533); experiment: CellTiter-Glo proliferation, Ba/F3-FL-EGFR; assay type: cell-based; conditions: 72 hours, read-out: Ba/F3-FL-EGFR IC50/nM
# T2 construct: FL read as full length
# Method in brief: as §1
# [2] = system: Ba/F3-FL-EGFR-del19-C797S; experiment: CellTiter-Glo proliferation, Ba/F3-FL-EGFR-del19-C797S; assay type: cell-based; conditions: proliferation, 72 hours, CellTiter-Glo, read-out: Ba/F3-FL-EGFR-del19-C797S IC50/nM
# Method in brief: as §1
# EGFR (L858R/C797S) = EGFR (L858R/C797S) (Homo sapiens, UniProt P00533, C797S/L858R); experiment: MSA (Mobility Shift Assay) kinase activity, EGFR-L858R-C797S; assay type: biochemical
# Procedure: as §2, §3, §4, §5, §6
# [3] = target: Ba/F3-FL-EGFR-L858R-T790M-C797S (Homo sapiens, UniProt P00533, T790M/C797S/L858R, cells depend on it); experiment: CellTiter-Glo proliferation, Ba/F3-FL-EGFR-L858R-T790M-C797S; assay type: cell-based; conditions: 72 hours, read-out: Ba/F3-FL-EGFR-L858R-T790M-C797S IC50/nM
# Method in brief: as §1
# EGFR (wild-type) = EGFR (wild-type) (Homo sapiens, UniProt P00533); experiment: MSA (Mobility Shift Assay) kinase activity, EGFR wild type; assay type: biochemical; conditions: read-out: EGFR wt/ IC50/nM
# Procedure: as §2, §3, §4, §5, §6
# [4] = Liver microsome stability test, mouse; assay type: in vitro ADME; conditions: mouse liver microsomes 0.5 mg/ml, compound 1 μM, NADPH 1 mM, within 60 minutes
# Procedure: (§7) The compounds of the present disclosure were subjected to a liver microsome stability test. The compounds to be tested were co-incubated with liver microsomes of different species with or without the addition of NADPH. The final concentration of the compounds to be tested in the test system was 1 μM. The final concentration of NADPH was 1 mM, and the final concentration of liver microsomes was 0.5 mg/ml.
# [5] = Liver microsome stability test, human; assay type: in vitro ADME; conditions: human liver microsomes 0.5 mg/ml, compound 1 μM, NADPH 1 mM, within 60 minutes
# Procedure: as §7
# EGFR (L858R/C797S), sequence (P00533 25-1210 C797S/L858R): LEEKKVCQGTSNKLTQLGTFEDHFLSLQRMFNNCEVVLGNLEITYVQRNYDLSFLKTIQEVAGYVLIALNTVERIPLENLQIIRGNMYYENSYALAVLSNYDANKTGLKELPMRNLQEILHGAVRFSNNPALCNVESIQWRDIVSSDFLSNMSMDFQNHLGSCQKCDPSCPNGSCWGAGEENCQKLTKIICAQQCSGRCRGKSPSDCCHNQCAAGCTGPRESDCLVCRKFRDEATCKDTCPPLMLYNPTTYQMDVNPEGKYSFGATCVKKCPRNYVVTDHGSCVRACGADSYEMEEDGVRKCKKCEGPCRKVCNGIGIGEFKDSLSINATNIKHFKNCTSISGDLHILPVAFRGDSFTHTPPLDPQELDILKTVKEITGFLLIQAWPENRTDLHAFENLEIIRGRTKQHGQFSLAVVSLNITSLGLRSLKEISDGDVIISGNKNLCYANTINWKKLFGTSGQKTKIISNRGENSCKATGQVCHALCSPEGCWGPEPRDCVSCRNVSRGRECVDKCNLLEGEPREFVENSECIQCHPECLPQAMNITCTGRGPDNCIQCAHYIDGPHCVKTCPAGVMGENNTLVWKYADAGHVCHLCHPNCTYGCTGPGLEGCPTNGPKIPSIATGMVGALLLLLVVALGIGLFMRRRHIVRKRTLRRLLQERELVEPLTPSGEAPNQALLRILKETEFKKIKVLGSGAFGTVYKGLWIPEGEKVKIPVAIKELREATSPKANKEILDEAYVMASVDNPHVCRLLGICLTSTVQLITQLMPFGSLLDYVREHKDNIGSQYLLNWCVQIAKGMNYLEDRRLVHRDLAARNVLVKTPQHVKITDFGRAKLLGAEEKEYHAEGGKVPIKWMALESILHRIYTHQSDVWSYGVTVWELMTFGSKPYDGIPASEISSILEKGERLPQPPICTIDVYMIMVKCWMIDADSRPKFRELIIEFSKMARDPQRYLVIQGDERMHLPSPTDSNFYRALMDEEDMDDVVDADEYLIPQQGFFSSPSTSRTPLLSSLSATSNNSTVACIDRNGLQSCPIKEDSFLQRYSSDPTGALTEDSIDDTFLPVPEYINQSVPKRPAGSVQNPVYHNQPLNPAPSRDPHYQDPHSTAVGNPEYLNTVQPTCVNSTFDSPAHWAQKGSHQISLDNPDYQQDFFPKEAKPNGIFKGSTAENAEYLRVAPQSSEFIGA
# T2 sequence (P00533 whole entry, change not shown): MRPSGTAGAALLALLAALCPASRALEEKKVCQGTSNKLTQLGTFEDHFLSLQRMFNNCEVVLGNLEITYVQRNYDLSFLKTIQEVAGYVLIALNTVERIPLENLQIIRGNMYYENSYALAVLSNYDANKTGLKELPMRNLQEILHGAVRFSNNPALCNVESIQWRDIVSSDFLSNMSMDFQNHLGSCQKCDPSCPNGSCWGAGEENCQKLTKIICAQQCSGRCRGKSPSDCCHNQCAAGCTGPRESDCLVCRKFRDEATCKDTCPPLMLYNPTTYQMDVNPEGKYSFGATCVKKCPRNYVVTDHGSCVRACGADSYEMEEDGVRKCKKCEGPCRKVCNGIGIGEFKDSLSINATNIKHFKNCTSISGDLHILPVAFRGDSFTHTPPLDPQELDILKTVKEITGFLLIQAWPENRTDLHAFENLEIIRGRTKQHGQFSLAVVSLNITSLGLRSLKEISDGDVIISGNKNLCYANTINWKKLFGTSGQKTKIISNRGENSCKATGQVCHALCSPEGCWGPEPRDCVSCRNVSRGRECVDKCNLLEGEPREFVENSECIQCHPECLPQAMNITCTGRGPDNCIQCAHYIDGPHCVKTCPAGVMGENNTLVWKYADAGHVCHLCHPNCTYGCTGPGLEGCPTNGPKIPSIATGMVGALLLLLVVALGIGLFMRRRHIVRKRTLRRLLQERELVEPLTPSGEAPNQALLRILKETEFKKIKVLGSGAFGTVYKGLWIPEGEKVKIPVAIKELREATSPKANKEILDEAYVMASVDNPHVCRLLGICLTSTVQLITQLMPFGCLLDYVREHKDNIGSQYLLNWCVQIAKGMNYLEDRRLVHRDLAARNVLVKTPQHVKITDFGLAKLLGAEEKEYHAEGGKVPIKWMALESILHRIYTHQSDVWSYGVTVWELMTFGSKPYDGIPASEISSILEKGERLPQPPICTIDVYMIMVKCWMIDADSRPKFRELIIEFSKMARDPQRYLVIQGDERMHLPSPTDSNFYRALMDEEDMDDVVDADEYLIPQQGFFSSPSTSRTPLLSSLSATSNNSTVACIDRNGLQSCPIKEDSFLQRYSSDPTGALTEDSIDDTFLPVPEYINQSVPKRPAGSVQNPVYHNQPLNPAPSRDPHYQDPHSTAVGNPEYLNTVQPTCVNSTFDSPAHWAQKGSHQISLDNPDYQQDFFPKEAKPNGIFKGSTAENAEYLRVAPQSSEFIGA
# Ba/F3-FL-EGFR-L858R-T790M-C797S, sequence (P00533 whole entry T790M/C797S/L858R): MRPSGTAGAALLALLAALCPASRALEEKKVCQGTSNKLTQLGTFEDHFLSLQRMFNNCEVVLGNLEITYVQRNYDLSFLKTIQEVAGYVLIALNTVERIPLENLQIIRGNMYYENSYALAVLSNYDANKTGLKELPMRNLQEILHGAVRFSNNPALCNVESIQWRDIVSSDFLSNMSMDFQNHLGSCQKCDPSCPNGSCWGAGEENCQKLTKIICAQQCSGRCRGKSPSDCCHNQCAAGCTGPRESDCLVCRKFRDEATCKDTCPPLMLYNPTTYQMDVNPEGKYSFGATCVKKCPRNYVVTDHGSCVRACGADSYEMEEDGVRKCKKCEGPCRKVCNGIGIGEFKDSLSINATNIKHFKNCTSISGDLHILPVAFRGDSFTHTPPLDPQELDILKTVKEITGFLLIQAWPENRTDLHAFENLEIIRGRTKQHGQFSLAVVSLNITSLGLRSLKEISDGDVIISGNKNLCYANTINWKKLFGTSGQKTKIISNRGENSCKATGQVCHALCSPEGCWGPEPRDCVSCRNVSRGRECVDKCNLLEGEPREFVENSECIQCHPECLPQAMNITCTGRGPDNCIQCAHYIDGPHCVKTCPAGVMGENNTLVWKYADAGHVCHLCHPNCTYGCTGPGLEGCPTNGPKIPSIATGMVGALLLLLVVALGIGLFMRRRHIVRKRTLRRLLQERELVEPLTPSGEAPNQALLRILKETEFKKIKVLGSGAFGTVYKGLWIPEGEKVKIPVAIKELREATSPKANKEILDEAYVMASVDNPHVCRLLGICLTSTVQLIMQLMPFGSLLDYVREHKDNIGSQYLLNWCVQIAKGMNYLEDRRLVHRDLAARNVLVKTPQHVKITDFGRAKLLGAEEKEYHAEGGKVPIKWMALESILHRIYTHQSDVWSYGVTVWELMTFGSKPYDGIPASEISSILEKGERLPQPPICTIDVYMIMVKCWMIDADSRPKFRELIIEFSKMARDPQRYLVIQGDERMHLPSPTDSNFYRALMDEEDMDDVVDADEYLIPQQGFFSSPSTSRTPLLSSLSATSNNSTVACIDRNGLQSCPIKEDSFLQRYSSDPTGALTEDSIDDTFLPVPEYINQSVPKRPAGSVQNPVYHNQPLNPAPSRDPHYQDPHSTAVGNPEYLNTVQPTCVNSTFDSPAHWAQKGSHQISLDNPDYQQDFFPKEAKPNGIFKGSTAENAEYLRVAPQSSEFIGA
# T1 sequence (P00533 whole entry C797S/L858R, the tested form may be a part): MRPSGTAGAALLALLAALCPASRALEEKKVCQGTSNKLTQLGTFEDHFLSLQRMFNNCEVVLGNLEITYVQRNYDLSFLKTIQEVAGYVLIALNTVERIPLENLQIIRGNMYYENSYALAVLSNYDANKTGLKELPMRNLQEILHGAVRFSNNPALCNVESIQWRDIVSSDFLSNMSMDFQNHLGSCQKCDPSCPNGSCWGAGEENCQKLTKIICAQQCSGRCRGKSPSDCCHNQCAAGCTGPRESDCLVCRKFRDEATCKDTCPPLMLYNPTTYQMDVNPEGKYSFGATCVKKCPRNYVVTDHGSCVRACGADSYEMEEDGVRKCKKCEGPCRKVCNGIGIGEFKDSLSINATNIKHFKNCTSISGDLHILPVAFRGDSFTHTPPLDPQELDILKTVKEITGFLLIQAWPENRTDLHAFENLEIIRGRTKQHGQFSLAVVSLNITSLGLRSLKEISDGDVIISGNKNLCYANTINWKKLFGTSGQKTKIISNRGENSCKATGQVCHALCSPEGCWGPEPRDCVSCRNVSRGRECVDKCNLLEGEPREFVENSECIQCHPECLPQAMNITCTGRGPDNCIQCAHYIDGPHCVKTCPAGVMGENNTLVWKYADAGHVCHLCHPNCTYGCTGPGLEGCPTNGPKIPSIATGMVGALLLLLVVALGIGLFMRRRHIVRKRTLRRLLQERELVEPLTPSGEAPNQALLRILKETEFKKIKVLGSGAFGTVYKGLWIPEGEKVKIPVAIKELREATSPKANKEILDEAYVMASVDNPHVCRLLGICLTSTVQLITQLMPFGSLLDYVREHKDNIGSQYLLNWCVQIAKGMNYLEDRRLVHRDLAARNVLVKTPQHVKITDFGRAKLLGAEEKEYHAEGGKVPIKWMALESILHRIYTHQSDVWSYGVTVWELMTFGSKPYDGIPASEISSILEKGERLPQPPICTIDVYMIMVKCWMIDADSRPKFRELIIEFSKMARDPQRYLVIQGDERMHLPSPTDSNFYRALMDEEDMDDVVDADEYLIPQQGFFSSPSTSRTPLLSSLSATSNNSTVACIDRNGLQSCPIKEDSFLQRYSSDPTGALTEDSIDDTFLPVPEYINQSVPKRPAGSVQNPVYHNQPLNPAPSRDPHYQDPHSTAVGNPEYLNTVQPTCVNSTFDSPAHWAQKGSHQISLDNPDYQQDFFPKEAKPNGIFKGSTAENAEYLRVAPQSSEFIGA
Structure (SMILES),GI50 [1] [nM],GI50 (Ba/F3-FL-EGFR-L858R) [nM],IC50 (EGFR (L858R/T790M/C797S)) [nM],IC50 (EGFR (L858R)) [nM],GI50 (Ba/F3-FL-EGFR) [nM],IC50 ([2]; 72 h) [nM],IC50 (EGFR (L858R/C797S)) [nM],GI50 [3] [nM],IC50 (EGFR (wild-type)) [nM],Mouse Clint/(mL/min/kg) [4] [mL/min/kg],IC50 [2] [nM],Human Clint/(mL/min/kg) [5] [mL/min/kg],CLint scaled at 1 μM [4] [mL/min/kg],CLint scaled at 1 μM [5] [mL/min/kg]
CC(C)c1ccc(N2CC(CS(C)(=O)=O)C2)c2cnc(Nc3ccnc(-c4cnn(S(=O)(=O)C5CCC5)c4)n3)cc12 [Compound H13],18,44,0.91,1.8,640,23,2.5,158,11.4,–,–,–,–,–
CC(C)c1ccc(N2CC(NS(C)(=O)=O)C2)c2cnc(Nc3ccnc(N4CCC(C)(O)C(F)C4)n3)cc12 (centres unmarked) [Compound P51],28,86,0.12,2.5,1750,181,4.2,63,13.4,–,–,–,–,–
CC(C)c1ccc(N2CC(CS(C)(=O)=O)C2)c2cnc(Nc3ccnc(-c4cnn(S(=O)(=O)C5CC5)c4)n3)cc12 [Compound H1],3.1,5.9,0.4,1.6,101,–,1.5,16,3.9,174,10,<8.6,–,–
CC(C)c1ccc(N2CC(CS(C)(=O)=O)C2)c2cnc(Nc3ccnc(-c4cnn(S(=O)(=O)C5CCOCC5)c4)n3)cc12 [Compound H10],54,94,0.34,8.1,1080,101,7.2,219,30.3,–,–,–,–,–
CC(C)c1ccc(N2CC(CS(C)(=O)=O)C2)c2cnc(Nc3ccnc(-c4cnn(S(C)(=O)=O)c4)n3)cc12 [Compound H7],11,13,0.14,–,365,12,0.77,25,2.4,–,–,–,151,21.3
CC(C)c1ccc(N2CC(NS(C)(=O)=O)C2)c2cnc(Nc3ccnc(N4CCC(O)C(F)(F)C4)n3)cc12 (centres unmarked) [Compound P30],48,111,0.1,3.5,2340,200,4.8,47,18.1,–,–,–,230,< 8.6
CC(C)c1ccc(N2CC(NS(C)(=O)=O)C2)c2cnc(Nc3ccnc(N4CCC(O)C(F)C4)n3)cc12 (centres unmarked) [Compound P21],38.6,76,0.06,1.9,1510,205,2.3,36,8.4,–,–,–,396,13.6
CCCS(=O)(=O)n1cc(-c2nccc(Nc3cc4c(C(C)C)ccc(N5CC(CS(C)(=O)=O)C5)c4cn3)n2)cn1 [Compound H6],40,–,0.3,1.5,559,–,2.2,90,5.2,–,48,–,–,–
CC(C)c1ccc(N2CC(CS(C)(=O)=O)C2)c2cnc(Nc3ccnc(-c4cn[nH]c4)n3)cc12 [Compound H3],188,–,0.7,5.6,854,–,4.7,462,11.7,–,216,–,–,–
COC1CCN(c2nccc(Nc3cc4c(C(C)C)ccc(N5CC(NS(C)(=O)=O)C5)c4cn3)n2)CC1F (centres unmarked) [Compound P29],13,41,0.07,1.3,1090,202,2.5,13,8.4,–,–,–,440,23.4
CC(C)c1ccc(N2CC(NS(C)(=O)=O)C2)c2cnc(Nc3ccnc(N4CCC(O)C(C)(F)C4)n3)cc12 (centres unmarked) [Compound P45],61,181,0.18,4.1,2780,265,7.6,38,20.7,–,–,–,–,–
CC(C)c1ccc(N2CC(CS(C)(=O)=O)C2)c2cnc(Nc3ccnc(-c4cnn(S(=O)(=O)C5(C)CC5)c4)n3)cc12 [Compound H18],46,73,0.6,2.6,658,69,5,150,7.3,–,–,–,–,–
CC(C)c1ccc(N2C[C@H](NS(C)(=O)=O)[C@H]2C)c2cnc(Nc3ccnc(N4CCC(O)C(F)C4)n3)cc12 (some centres unmarked) [Compound P25],15,42,0.08,0.77,618,71,1.22,11,5.1,–,–,–,–,–
"CC(C)c1ccc(N2CC(CS(C)(=O)=O)C2)c2cnc(Nc3ccnc(N4CCC(O)C(F)C4)n3)cc12 (centres unmarked) [Control A, reference compound]",52,176,0.19,7.1,2020,–,11,38,30.2,–,–,–,–,–
CC(C)c1ccc(N2CC(NS(C)(=O)=O)C2)c2cnc(Nc3ccnc(N4CCC(O)C(C)(F)C4)n3)cc12 (centres unmarked) [Compound P46],88,208,0.61,6.2,3110,–,9.3,271,41.8,–,308,–,–,–
CC(C)c1ccc(N2CC(CS(C)(=O)=O)C2)c2cnc(Nc3ccnc(-c4cnn(CC(F)(F)F)c4)n3)cc12 [Compound H11],37,40,0.44,5.8,> 10000,97,5.1,123,24.3,–,–,–,–,–
CC(C)c1ccc(N2CC(CS(C)(=O)=O)C2)c2cnc(Nc3ccnc(-c4cnn(S(=O)(=O)N(C)C)c4)n3)cc12 [Compound H19],36,64,0.4,2.9,559,57,4.6,123,7.4,–,–,–,61.8,17.2
